Assay results taken from the kinase profiling compilation of Christmann-Franck et al. (2016).

Assays:
Details in all cases: compound 10.0 µM
BMX (human) = BMX (human) (UniProt P51813)
CAMK2D (human) = CAMK2D (human) (UniProt Q13557)
CAMKK1 (human) = CAMKK1 (human) (UniProt Q8N5S9)
CDK15 (human) = CDK15 (human) (UniProt Q96Q40)
CDKL5 (human) = CDKL5 (human) (UniProt O76039)
CHEK1 (human) = CHEK1 (human) (UniProt O14757)
CRK2 (P.falciparum) = CRK2 (P.falciparum) (UniProt P61075)
CSNK1G3 (human) = CSNK1G3 (human) (UniProt Q9Y6M4)
DYRK2 (human) = DYRK2 (human) (UniProt Q92630)
EPHA4 (human) = EPHA4 (human) (UniProt P54764)
ERBB4 (human) = ERBB4 (human) (UniProt Q15303)
FLT3 (human) = FLT3 (human) (UniProt P36888)
FLT4 (human) = FLT4 (human) (UniProt P35916)
FYN (human) = FYN (human) (UniProt P06241)
GSK3A (human) = GSK3A (human) (UniProt P49840)
HIPK4 (human) = HIPK4 (human) (UniProt Q8NE63)
INSRR (human) = INSRR (human) (UniProt P14616)
IRAK3 (human) = IRAK3 (human) (UniProt Q9Y616)
MAPKAPK2 (human) = MAPKAPK2 (human) (UniProt P49137)
MATK (human) = MATK (human) (UniProt P42679)
MELK (human) = MELK (human) (UniProt Q14680)
MET (human) = MET (human) (UniProt P08581)
MKNK2 (human) = MKNK2 (human) (UniProt Q9HBH9)
MUSK (human) = MUSK (human) (UniProt O15146)
NEK5 (human) = NEK5 (human) (UniProt Q6P3R8)
PAK6 (human) = PAK6 (human) (UniProt Q9NQU5)
PIM3 (human) = PIM3 (human) (UniProt Q86V86)
PRKCE (human) = PRKCE (human) (UniProt Q02156)
PRKG1 (human) = PRKG1 (human) (UniProt Q13976)
PTK6 (human) = PTK6 (human) (UniProt Q13882)
RIOK2 (human) = RIOK2 (human) (UniProt Q9BVS4)
ROCK1 (human) = ROCK1 (human) (UniProt Q13464)
STK24 (human) = STK24 (human) (UniProt Q9Y6E0)
STK36 (human) = STK36 (human) (UniProt Q9NRP7)
STK39 (human) = STK39 (human) (UniProt Q9UEW8)
STK4 (human) = STK4 (human) (UniProt Q13043)
TAOK2 (human) = TAOK2 (human) (UniProt Q9UL54)
TEC (human) = TEC (human) (UniProt P42680)
TNNI3K (human) = TNNI3K (human) (UniProt Q59H18)
TRPM6 (human) = TRPM6 (human) (UniProt Q9BX84)
WEE2 (human) = WEE2 (human) (UniProt P0C1S8)
ZAP70 (human) = ZAP70 (human) (UniProt P43403)

Sequence of RIOK2 (human) (Q9BVS4 whole entry, looked up): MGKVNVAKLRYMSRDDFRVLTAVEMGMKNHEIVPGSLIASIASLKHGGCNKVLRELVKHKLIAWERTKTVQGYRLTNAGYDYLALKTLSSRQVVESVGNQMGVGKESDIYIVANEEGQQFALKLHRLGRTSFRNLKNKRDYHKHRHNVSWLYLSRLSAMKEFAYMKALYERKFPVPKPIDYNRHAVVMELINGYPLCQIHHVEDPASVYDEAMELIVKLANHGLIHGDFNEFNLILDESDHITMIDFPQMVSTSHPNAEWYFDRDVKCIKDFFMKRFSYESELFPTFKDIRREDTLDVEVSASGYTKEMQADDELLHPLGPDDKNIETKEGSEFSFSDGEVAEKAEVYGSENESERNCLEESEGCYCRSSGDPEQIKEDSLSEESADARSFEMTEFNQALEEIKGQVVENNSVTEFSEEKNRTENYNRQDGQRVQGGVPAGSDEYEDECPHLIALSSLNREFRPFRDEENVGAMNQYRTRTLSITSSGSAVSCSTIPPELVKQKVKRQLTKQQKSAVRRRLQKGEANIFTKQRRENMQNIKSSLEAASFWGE
Sequence of CHEK1 (human) (O14757 whole entry, looked up): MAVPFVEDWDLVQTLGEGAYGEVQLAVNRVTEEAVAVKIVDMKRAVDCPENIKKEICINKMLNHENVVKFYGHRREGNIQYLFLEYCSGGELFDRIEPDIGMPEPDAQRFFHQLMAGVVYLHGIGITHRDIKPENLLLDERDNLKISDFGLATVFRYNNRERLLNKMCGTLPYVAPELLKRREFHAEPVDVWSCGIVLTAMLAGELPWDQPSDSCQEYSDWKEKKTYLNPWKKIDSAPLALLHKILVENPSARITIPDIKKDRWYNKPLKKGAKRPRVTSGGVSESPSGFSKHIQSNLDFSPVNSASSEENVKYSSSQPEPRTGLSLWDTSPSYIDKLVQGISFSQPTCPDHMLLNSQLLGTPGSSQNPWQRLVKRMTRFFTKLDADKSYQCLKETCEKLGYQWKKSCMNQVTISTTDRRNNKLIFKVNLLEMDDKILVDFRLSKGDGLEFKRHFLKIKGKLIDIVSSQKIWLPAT
Sequence of PAK6 (human) (Q9NQU5 whole entry, looked up): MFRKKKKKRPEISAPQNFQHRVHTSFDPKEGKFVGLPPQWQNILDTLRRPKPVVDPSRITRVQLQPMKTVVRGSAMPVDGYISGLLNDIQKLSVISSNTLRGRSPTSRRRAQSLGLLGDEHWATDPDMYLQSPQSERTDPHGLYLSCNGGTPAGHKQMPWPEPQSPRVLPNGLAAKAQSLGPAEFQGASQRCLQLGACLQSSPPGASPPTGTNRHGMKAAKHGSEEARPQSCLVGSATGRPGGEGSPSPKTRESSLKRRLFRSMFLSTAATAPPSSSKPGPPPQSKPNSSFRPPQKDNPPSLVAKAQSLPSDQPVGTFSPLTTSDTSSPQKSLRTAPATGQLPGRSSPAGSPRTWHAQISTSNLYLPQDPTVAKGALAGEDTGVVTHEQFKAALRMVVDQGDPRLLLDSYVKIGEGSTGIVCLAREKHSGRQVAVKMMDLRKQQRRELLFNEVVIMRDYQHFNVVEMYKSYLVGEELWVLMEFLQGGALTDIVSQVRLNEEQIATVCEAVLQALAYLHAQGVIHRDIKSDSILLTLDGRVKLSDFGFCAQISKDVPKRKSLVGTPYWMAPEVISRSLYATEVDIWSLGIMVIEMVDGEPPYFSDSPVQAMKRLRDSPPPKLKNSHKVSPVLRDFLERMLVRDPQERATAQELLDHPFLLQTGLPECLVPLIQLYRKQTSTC
Sequence of MELK (human) (Q14680 whole entry, looked up): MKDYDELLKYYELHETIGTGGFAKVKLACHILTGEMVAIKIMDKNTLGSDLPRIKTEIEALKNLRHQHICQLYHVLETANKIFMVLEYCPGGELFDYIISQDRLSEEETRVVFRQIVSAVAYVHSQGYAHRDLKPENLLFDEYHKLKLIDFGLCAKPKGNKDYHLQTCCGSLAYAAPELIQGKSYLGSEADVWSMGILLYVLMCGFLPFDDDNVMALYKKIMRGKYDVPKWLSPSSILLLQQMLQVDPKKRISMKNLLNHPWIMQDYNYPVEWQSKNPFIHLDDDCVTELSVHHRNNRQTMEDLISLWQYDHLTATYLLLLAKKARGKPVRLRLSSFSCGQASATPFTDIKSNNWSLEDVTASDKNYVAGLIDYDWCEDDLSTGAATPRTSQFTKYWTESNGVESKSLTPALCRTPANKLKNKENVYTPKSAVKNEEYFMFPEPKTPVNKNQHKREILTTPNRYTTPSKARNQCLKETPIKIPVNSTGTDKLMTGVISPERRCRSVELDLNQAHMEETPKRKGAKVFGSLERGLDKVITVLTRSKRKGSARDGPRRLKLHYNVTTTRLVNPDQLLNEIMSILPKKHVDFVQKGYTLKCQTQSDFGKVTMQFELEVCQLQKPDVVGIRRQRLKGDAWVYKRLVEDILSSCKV
Sequence of INSRR (human) (P14616 whole entry, looked up): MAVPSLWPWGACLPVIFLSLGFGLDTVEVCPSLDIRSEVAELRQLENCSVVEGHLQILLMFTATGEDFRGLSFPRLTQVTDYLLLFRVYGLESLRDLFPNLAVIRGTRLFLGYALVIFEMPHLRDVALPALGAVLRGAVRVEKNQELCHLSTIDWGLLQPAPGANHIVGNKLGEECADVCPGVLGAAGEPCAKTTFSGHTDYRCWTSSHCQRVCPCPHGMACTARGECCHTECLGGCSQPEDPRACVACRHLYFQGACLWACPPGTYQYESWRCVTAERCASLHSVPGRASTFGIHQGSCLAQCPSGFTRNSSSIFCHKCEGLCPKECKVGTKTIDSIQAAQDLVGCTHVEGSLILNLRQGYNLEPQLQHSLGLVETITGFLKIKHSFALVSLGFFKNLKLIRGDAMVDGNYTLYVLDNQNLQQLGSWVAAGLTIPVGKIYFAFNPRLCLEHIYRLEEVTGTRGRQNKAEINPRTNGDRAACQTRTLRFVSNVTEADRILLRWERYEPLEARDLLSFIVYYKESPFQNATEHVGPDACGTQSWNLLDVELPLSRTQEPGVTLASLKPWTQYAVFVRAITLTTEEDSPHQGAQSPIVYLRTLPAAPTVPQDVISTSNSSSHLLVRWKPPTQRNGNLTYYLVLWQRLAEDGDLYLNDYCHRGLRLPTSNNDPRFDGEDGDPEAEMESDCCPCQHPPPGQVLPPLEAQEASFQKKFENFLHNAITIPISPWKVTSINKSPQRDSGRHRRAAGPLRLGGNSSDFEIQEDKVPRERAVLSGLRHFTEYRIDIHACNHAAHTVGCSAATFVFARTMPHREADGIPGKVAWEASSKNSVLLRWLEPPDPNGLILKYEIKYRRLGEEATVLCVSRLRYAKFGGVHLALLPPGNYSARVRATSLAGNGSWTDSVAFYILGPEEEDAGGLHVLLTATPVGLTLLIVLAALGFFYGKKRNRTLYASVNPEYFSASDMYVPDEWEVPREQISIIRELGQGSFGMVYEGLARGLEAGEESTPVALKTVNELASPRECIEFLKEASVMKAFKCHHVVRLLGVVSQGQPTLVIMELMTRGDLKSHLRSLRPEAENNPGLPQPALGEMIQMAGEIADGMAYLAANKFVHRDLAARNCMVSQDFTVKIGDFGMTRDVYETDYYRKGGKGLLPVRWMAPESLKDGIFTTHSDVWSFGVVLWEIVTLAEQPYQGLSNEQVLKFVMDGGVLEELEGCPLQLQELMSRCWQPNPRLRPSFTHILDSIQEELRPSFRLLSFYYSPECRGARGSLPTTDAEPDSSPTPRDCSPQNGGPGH
Sequence of MUSK (human) (O15146 whole entry, looked up): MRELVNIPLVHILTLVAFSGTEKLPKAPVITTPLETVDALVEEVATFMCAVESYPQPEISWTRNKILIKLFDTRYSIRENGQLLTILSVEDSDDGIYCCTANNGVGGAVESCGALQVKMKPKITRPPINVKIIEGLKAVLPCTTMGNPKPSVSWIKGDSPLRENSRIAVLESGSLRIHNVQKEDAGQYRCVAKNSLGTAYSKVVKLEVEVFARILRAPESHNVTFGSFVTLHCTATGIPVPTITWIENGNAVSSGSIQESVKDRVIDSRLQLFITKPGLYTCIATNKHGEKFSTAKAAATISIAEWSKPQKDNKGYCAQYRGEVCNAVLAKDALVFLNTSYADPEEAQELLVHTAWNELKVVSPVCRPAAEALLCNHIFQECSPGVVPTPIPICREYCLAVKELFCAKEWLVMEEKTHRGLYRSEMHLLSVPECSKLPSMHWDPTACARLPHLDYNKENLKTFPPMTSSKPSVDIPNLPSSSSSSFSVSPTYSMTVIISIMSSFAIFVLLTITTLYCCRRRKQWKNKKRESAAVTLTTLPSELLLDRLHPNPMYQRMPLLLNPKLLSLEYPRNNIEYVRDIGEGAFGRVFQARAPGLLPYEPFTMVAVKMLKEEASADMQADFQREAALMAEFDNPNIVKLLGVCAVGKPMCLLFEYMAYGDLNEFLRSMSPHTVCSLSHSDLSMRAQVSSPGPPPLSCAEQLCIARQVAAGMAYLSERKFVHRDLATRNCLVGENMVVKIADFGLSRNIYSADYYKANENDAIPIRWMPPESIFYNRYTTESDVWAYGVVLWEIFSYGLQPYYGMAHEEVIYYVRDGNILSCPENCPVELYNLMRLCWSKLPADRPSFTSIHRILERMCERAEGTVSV

## CNC(=O)c1cc(Oc2ccc(NC(=O)Nc3ccc(Cl)c(C(F)(F)F)c3)cc2)cc[n+]1[O-]
BMX (human)
  per cent of control: 67%
CAMK2D (human)
  per cent of control: 87%
CAMKK1 (human)
  per cent of control: 79%
CDK15 (human)
  per cent of control: 9.6%
CDKL5 (human)
  per cent of control: 27%
CHEK1 (human)
  per cent of control: 79%
CRK2 (P.falciparum)
  per cent of control: 100%
CSNK1G3 (human)
  per cent of control: 96%
DYRK2 (human)
  per cent of control: 26%
EPHA4 (human)
  per cent of control: 13%
ERBB4 (human)
  per cent of control: 100%
FLT3 (human)
  per cent of control: 0.1%
FLT4 (human)
  per cent of control: 0%
FYN (human)
  per cent of control: 41%
GSK3A (human)
  per cent of control: 100%
HIPK4 (human)
  per cent of control: 2.3%
INSRR (human)
  per cent of control: 86%
IRAK3 (human)
  per cent of control: 91%
MAPKAPK2 (human)
  per cent of control: 100%
MATK (human)
  per cent of control: 62%
MELK (human)
  per cent of control: 65%
MET (human)
  per cent of control: 16%
MKNK2 (human)
  per cent of control: 0.05%
MUSK (human)
  per cent of control: 0.2%
NEK5 (human)
  per cent of control: 100%
PAK6 (human)
  per cent of control: 82%
PIM3 (human)
  per cent of control: 100%
PRKCE (human)
  per cent of control: 100%
PRKG1 (human)
  per cent of control: 98%
PTK6 (human)
  per cent of control: 100%
RIOK2 (human)
  per cent of control: 42%
ROCK1 (human)
  per cent of control: 23%
STK24 (human)
  per cent of control: 14%
STK36 (human)
  per cent of control: 26%
STK39 (human)
  per cent of control: 87%
STK4 (human)
  per cent of control: 42%
TAOK2 (human)
  per cent of control: 8%
TEC (human)
  per cent of control: 68%
TNNI3K (human)
  per cent of control: 2.4%
TRPM6 (human)
  per cent of control: 100%
WEE2 (human)
  per cent of control: 94%
ZAP70 (human)
  per cent of control: 77%

## CNC(=O)c1cc(Oc2ccc(NC(=O)Nc3ccc(Cl)c(C(F)(F)F)c3)cc2)ccn1
BMX (human)
  per cent of control: 94%
CAMK2D (human)
  per cent of control: 89%
CAMKK1 (human)
  per cent of control: 100%
CDK15 (human)
  per cent of control: 7.4%
CDKL5 (human)
  per cent of control: 67%
CHEK1 (human)
  per cent of control: 49%
CRK2 (P.falciparum)
  per cent of control: 59%
CSNK1G3 (human)
  per cent of control: 100%
DYRK2 (human)
  per cent of control: 60%
EPHA4 (human)
  per cent of control: 15%
ERBB4 (human)
  per cent of control: 92%
FLT3 (human)
  per cent of control: 0.05%
FLT4 (human)
  per cent of control: 0%
FYN (human)
  per cent of control: 35%
GSK3A (human)
  per cent of control: 100%
HIPK4 (human)
  per cent of control: 4.5%
INSRR (human)
  per cent of control: 86%
IRAK3 (human)
  per cent of control: 76%
MAPKAPK2 (human)
  per cent of control: 91%
MATK (human)
  per cent of control: 64%
MELK (human)
  per cent of control: 83%
MET (human)
  per cent of control: 74%
MKNK2 (human)
  per cent of control: 0.1%
MUSK (human)
  per cent of control: 0%
NEK5 (human)
  per cent of control: 100%
PAK6 (human)
  per cent of control: 86%
PIM3 (human)
  per cent of control: 100%
PRKCE (human)
  per cent of control: 100%
PRKG1 (human)
  per cent of control: 100%
PTK6 (human)
  per cent of control: 93%
RIOK2 (human)
  per cent of control: 48%
ROCK1 (human)
  per cent of control: 84%
STK24 (human)
  per cent of control: 81%
STK36 (human)
  per cent of control: 16%
STK39 (human)
  per cent of control: 76%
STK4 (human)
  per cent of control: 96%
TAOK2 (human)
  per cent of control: 0.65%
TEC (human)
  per cent of control: 100%
TNNI3K (human)
  per cent of control: 2.4%
TRPM6 (human)
  per cent of control: 100%
WEE2 (human)
  per cent of control: 100%
ZAP70 (human)
  per cent of control: 91%
